Tested on: moderate-to-severe chronic spontaneous urticaria (CSU)
Test: Phase 2 CSU study: urticaria activity score over 7 days (UAS7)
Type: in vivo, human
Conditions: Omalizumab-naïve, 400 mg QPM
Text: The study comprises a 12 week, randomized, double-blind, placebo-controlled, multi-center, dose-ranging efficacy and safety phase, followed by a 40 week open label extension (OLE) phase (see FIG. 1). The study consists of three phases and an optional OLE phase. […] Clinically, CSU is characterized by the spontaneous and recurrent appearance of pruritic hives. The proposed primary endpoints were the UAS7 at Week 12 in EU and EU reference countries and the ISS7 in the US. Regardless of where a participant was from, all assessments were the same. The UAS7 score is a composite score containing both the HSS7 and the ISS7. This allowed a global assessment of the two key components of urticaria: hives and itch. […] The UAS is a validated PRO measure. […] The daily UAS scores range from 0 to 6 point/day. […] Patients were to complete the UAS using the e-diary. […] The following secondary endpoints were to be analyzed using the same approach as for the primary endpoint: • Change from baseline in UAS7 at Week 4 • Change from baseline in UAS7 at Week 12 (for US and US reference countries) • Change from baseline in ISS7 at Week 12 (except US and US reference countries) • Change from baseline in HSS7 at Week 12 The following responder secondary endpoints were to be analyzed using the Cochran-Mantel-Haenszel test adjusted by region: • Proportion of participants with UAS7<6 at Week 12 • Proportion of participants with UAS7=0 at Week 12 Participants who received selected prohibited medications and/or rescue medications were to be considered as non-responders for time points after the medication usage. For other participants, all available data including those collected during the off-treatment period were to be used to determine the responder/non-responder status. Missing data were to be considered as non-responders.

CC(C)(C=C(C#N)C(=O)N1CCC[C@@H](n2nc(-c3ccc(Oc4ccccc4)cc3F)c3c(N)ncnc32)C1)N1CCN(C2COC2)CC1 [rilzabrutinib, (R)-2-[3-[4-amino-3-(2-fluoro-4-phenoxy-phenyl)pyrazolo[3,4-d]pyrimidin-1-yl]piperidine-1-carbonyl]-4-methyl-4-[4-(oxetan-3-yl)piperazin-1-yl]pent-2-enenitrile]
Non-responder n (%), UAS7 ≤6 (Week 1): 35 (94.6) n (%)
OR for rilzabrutinib vs. placebo, UAS7 = 0 (Week 1): 0.000 (NE,
RRD (%) for rilzabrutinib vs. placebo, UAS7 = 0 (Week 1): −2.9 %
RRD (%) for rilzabrutinib vs. placebo, UAS7 ≤6 (Week 1): −0.0%
Responder n (%), UAS7 = 0 (Week 1): 0 n (%)
Responder n (%), UAS7 ≤6 (Week 1): 2 (5.4) n (%)
Imputed non-responder n (%), UAS7 = 0 (Week 2): 0 n (%)
Imputed non-responder n (%), UAS7 ≤6 (Week 2): 0 n (%)
Non-responder n (%), UAS7 = 0 (Week 2): 37 (100) n (%)
Non-responder n (%), UAS7 ≤6 (Week 2): 36 (97.3) n (%)
OR for rilzabrutinib vs. placebo, UAS7 = 0 (Week 2): 0.000 (NE,
OR for rilzabrutinib vs. placebo, UAS7 ≤6 (Week 2): 0.489
RRD (%) for rilzabrutinib vs. placebo, UAS7 = 0 (Week 2): −2.9 %
RRD (%) for rilzabrutinib vs. placebo, UAS7 ≤6 (Week 2): −2.7%
Responder n (%), UAS7 = 0 (Week 2): 0 n (%)
Responder n (%), UAS7 ≤6 (Week 2): 1 (2.7) n (%)
Imputed non-responder n (%), UAS7 = 0 (Week 3): 0 n (%)
Imputed non-responder n (%), UAS7 ≤6 (Week 3): 0 n (%)
Non-responder n (%), UAS7 = 0 (Week 3): 37 (100) n (%)
Non-responder n (%), UAS7 ≤6 (Week 3): 35 (94.6) n (%)
OR for rilzabrutinib vs. placebo, UAS7 = 0 (Week 3): 0.000 (NE,
OR for rilzabrutinib vs. placebo, UAS7 ≤6 (Week 3): 0.666
RRD (%) for rilzabrutinib vs. placebo, UAS7 = 0 (Week 3): −2.9 %
RRD (%) for rilzabrutinib vs. placebo, UAS7 ≤6 (Week 3): −2.5%
Responder n (%), UAS7 = 0 (Week 3): 0 n (%)
Responder n (%), UAS7 ≤6 (Week 3): 2 (5.4) n (%)
Imputed non-responder n (%), UAS7 = 0 (Week 4): 1 (2.7) n (%)
Imputed non-responder n (%), UAS7 ≤6 (Week 4): 1 (2.7) n (%)
Non-responder n (%), UAS7 = 0 (Week 4): 37 (100) n (%)
Non-responder n (%), UAS7 ≤6 (Week 4): 35 (94.6) n (%)
OR for rilzabrutinib vs. placebo, UAS7 = 0 (Week 4): 0.000 (NE,
OR for rilzabrutinib vs. placebo, UAS7 ≤6 (Week 4): 0.486
RRD (%) for rilzabrutinib vs. placebo, UAS7 = 0 (Week 4): −5.3 %
RRD (%) for rilzabrutinib vs. placebo, UAS7 ≤6 (Week 4): −5.0%
Responder n (%), UAS7 = 0 (Week 4): 0 n (%)
Responder n (%), UAS7 ≤6 (Week 4): 2 (5.4) n (%)
Imputed non-responder n (%), UAS7 = 0 (Week 5): 2 (5.4) n (%)
Imputed non-responder n (%), UAS7 ≤6 (Week 5): 2 (5.4) n (%)
Non-responder n (%), UAS7 = 0 (Week 5): 36 (97.3) n (%)
Non-responder n (%), UAS7 ≤6 (Week 5): 35 (94.6) n (%)
OR for rilzabrutinib vs. placebo, UAS7 = 0 (Week 5): 0.923
OR for rilzabrutinib vs. placebo, UAS7 ≤6 (Week 5): 0.986
RRD (%) for rilzabrutinib vs. placebo, UAS7 = 0 (Week 5): −0.2 %
RRD (%) for rilzabrutinib vs. placebo, UAS7 ≤6 (Week 5): −0.1%
Responder n (%), UAS7 = 0 (Week 5): 1 (2.7) n (%)
Responder n (%), UAS7 ≤6 (Week 5): 2 (5.4) n (%)
Imputed non-responder n (%), UAS7 = 0 (Week 6): 4 (10.8) n (%)
Imputed non-responder n (%), UAS7 ≤6 (Week 6): 4 (10.8) n (%)
Non-responder n (%), UAS7 = 0 (Week 6): 36 (97.3) n (%)
Non-responder n (%), UAS7 ≤6 (Week 6): 34 (91.9) n (%)
OR for rilzabrutinib vs. placebo, UAS7 = 0 (Week 6): 0.923
RRD (%) for rilzabrutinib vs. placebo, UAS7 = 0 (Week 6): −0.2 %
RRD (%) for rilzabrutinib vs. placebo, UAS7 ≤6 (Week 6): −7.8%
Responder n (%), UAS7 = 0 (Week 6): 1 (2.7) n (%)
Responder n (%), UAS7 ≤6 (Week 6): 3 (8.1) n (%)
Imputed non-responder n (%), UAS7 = 0 (Week 7): 6 (16.2) n (%)
Imputed non-responder n (%), UAS7 ≤6 (Week 7): 6 (16.2) n (%)
Non-responder n (%), UAS7 = 0 (Week 7): 36 (97.3) n (%)
Non-responder n (%), UAS7 ≤6 (Week 7): 36 (97.3) n (%)
OR for rilzabrutinib vs. placebo, UAS7 = 0 (Week 7): 1.061
OR for rilzabrutinib vs. placebo, UAS7 ≤6 (Week 7): 0.249
RRD (%) for rilzabrutinib vs. placebo, UAS7 = 0 (Week 7): 0.2 %
RRD (%) for rilzabrutinib vs. placebo, UAS7 ≤6 (Week 7): −8.3%
Responder n (%), UAS7 = 0 (Week 7): 1 (2.7) n (%)
Responder n (%), UAS7 ≤6 (Week 7): 1 (2.7) n (%)
Imputed non-responder n (%), UAS7 = 0 (Week 8): 7 (18.9) n (%)
